{"source": "patent US9980943B2", "about": "“Methods of treating muscular dystrophy” (BOARD OF REGENTS OF THE NEVADA SYSTEM OF HIGHER EDUCATION, …, priority 2013, dated 2018)", "assay_type_in_all_cases": "cell-based, mouse", "key": {"[1]": {"system": "α7 integrin (LacZ reporter in α7βgal+/− myoblasts)", "test": "Myoblast α7+/LacZ integrin FDG assay (Burkin assay in myoblasts, 96-well)", "conditions": "96-well; for Burkin Assay in Myoblasts, signal relative to DMSO: α7+/LacZ myoblasts; for Burkin Assay in Myoblasts, value relative to DMSO: SU9516 analogs, N=3-6"}, "[2]": {"system": "α7 integrin (LacZ reporter in α7+/LacZ myotubes)", "test": "Myotube α7 integrin FDG assay (Burkin assay in myotubes, 96-well)", "conditions": "for Burkin Assay in Myotubes, value relative to DMSO: SU9516 analogs, 96-well, N=3-6"}, "[3]": {"system": "β-galactosidase in CMV-LacZ C2C12 myoblasts", "test": "CMV-LacZ secondary screen in C2C12 myoblasts (β-Gal stabilizing assay)", "conditions": "for CMV-LACZ in Myoblasts (β-galactosidase activity relative to DMSO): CMV-LacZ C2C12 myoblasts; for CMV-LACZ in Myoblasts, value relative to DMSO: SU9516 analogs, C2C12 CMV-LacZ, N=2", "method_in_brief": "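C2C12 myoblasts stably carrying a linearized CMV-driven LacZ construct, clone chosen by β-gal level in the myoblast FDG assay. Compounds tested in 96-well dose-response at 0.5, 1, 5, 10, 20 and 40 μM, N=2 replicates per point, to detect β-gal stabilization.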"}, "[4]": {"system": "β-galactosidase in CMV-LacZ C2C12 myotubes", "test": "CMV-LacZ secondary screen in C2C12 myotubes (β-Gal stabilizing assay)", "conditions": "for CMV-LACZ in Myotubes, signal relative to DMSO: C2C12 CMV-LacZ myotubes, fold relative to DMSO; for CMV-LACZ in Myotubes, value relative to DMSO: SU9516 analogs, C2C12 CMV-LacZ, N=2", "method_in_brief": "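A secondary screen identifies compounds that stabilize β-gal independently of the native promoter, using CMV-LacZ C2C12 cells. Curves span 0.5–40 μM at six levels, in duplicate.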"}}}
{"molecule": "O=C(Cn1nc(-c2ccc(Cl)cc2)ccc1=O)N1CCC2(CC1)OCCO2", "note": "[MLS000689492-01]", "values": [{"measurement": "Burkin Assay in Myoblasts, signal relative to DMSO", "setting": "[1]; 0.5 uM", "result": 1.073}, {"measurement": "Burkin Assay in Myoblasts, signal relative to DMSO", "setting": "[1]; 1 uM", "result": 0.908}, {"measurement": "Burkin Assay in Myoblasts, signal relative to DMSO", "setting": "[1]; 5 uM", "result": 0.94}, {"measurement": "Burkin Assay in Myoblasts, signal relative to DMSO", "setting": "[1]; 10 uM", "result": 0.9431}, {"measurement": "Burkin Assay in Myoblasts, signal relative to DMSO", "setting": "[1]; 20 uM", "result": 1.083}, {"measurement": "Burkin Assay in Myoblasts, signal relative to DMSO", "setting": "[1]; 40 uM", "result": 0.9652}, {"measurement": "Burkin Assay in Myotubes, α7 integrin LacZ reporter signal relative to DMSO", "setting": "[2]; 0.5 uM", "result": 1.156}, {"measurement": "Burkin Assay in Myotubes, α7 integrin LacZ reporter signal relative to DMSO", "setting": "[2]; 1 uM", "result": 1.138}, {"measurement": "Burkin Assay in Myotubes, α7 integrin LacZ reporter signal relative to DMSO", "setting": "[2]; 5 uM", "result": 0.9311}, {"measurement": "Burkin Assay in Myotubes, α7 integrin LacZ reporter signal relative to DMSO", "setting": "[2]; 10 uM", "result": 0.9292}, {"measurement": "Burkin Assay in Myotubes, α7 integrin LacZ reporter signal relative to DMSO", "setting": "[2]; 20 uM", "result": 0.8836}, {"measurement": "Burkin Assay in Myotubes, α7 integrin LacZ reporter signal relative to DMSO", "setting": "[2]; 40 uM", "result": 0.7544}, {"measurement": "CMV-LACZ in Myoblasts (β-galactosidase activity relative to DMSO)", "setting": "[3]; 0.5 uM", "result": 0.9363}, {"measurement": "CMV-LACZ in Myoblasts (β-galactosidase activity relative to DMSO)", "setting": "[3]; 1 uM", "result": 1.0252}, {"measurement": "CMV-LACZ in Myoblasts (β-galactosidase activity relative to DMSO)", "setting": "[3]; 5 uM", "result": 1.0863}, {"measurement": "CMV-LACZ in Myoblasts (β-galactosidase activity relative to DMSO)", "setting": "[3]; 10 uM", "result": 0.8653}, {"measurement": "CMV-LACZ in Myoblasts (β-galactosidase activity relative to DMSO)", "setting": "[3]; 20 uM", "result": 1.0141}, {"measurement": "CMV-LACZ in Myoblasts (β-galactosidase activity relative to DMSO)", "setting": "[3]; 40 uM", "result": 1.0026}, {"measurement": "CMV-LACZ in Myotubes, signal relative to DMSO", "setting": "[4]; 0.5 uM", "result": 1.0853}, {"measurement": "CMV-LACZ in Myotubes, signal relative to DMSO", "setting": "[4]; 1 uM", "result": 1.2400}, {"measurement": "CMV-LACZ in Myotubes, signal relative to DMSO", "setting": "[4]; 5 uM", "result": 1.0504}, {"measurement": "CMV-LACZ in Myotubes, signal relative to DMSO", "setting": "[4]; 10 uM", "result": 1.0940}, {"measurement": "CMV-LACZ in Myotubes, signal relative to DMSO", "setting": "[4]; 20 uM", "result": 1.0444}, {"measurement": "CMV-LACZ in Myotubes, signal relative to DMSO", "setting": "[4]; 40 uM", "result": 0.9267}]}
{"molecule": "Cc1ccc2c(c1)/C(=C/c1ccccc1)C(=O)N2", "note": "[MLS001202354-01]", "values": [{"measurement": "Burkin Assay in Myoblasts, value relative to DMSO", "setting": "[1]; 0.5 uM", "result": 1.077}, {"measurement": "Burkin Assay in Myoblasts, value relative to DMSO", "setting": "[1]; 1 uM", "result": 1.023}, {"measurement": "Burkin Assay in Myoblasts, value relative to DMSO", "setting": "[1]; 5 uM", "result": 1.036}, {"measurement": "Burkin Assay in Myoblasts, value relative to DMSO", "setting": "[1]; 10 uM", "result": 1.073}, {"measurement": "Burkin Assay in Myoblasts, value relative to DMSO", "setting": "[1]; 20 uM", "result": 0.516}, {"measurement": "Burkin Assay in Myoblasts, value relative to DMSO", "setting": "[1]; 40 uM", "result": 0.4275}, {"measurement": "Burkin Assay in Myotubes, value relative to DMSO", "setting": "[2]; 0.5 uM", "result": 0.8459}, {"measurement": "Burkin Assay in Myotubes, value relative to DMSO", "setting": "[2]; 1 uM", "result": 0.9022}, {"measurement": "Burkin Assay in Myotubes, value relative to DMSO", "setting": "[2]; 5 uM", "result": 0.9545}, {"measurement": "Burkin Assay in Myotubes, value relative to DMSO", "setting": "[2]; 10 uM", "result": 1.069}, {"measurement": "Burkin Assay in Myotubes, value relative to DMSO", "setting": "[2]; 20 uM", "result": 0.5824}, {"measurement": "Burkin Assay in Myotubes, value relative to DMSO", "setting": "[2]; 40 uM", "result": 0.5785}, {"measurement": "CMV-LACZ in Myoblasts, value relative to DMSO", "setting": "[3]; 0.5 uM", "result": 1.2275}, {"measurement": "CMV-LACZ in Myoblasts, value relative to DMSO", "setting": "[3]; 1 uM", "result": 0.9521}, {"measurement": "CMV-LACZ in Myoblasts, value relative to DMSO", "setting": "[3]; 5 uM", "result": 0.9669}, {"measurement": "CMV-LACZ in Myoblasts, value relative to DMSO", "setting": "[3]; 10 uM", "result": 0.9170}, {"measurement": "CMV-LACZ in Myoblasts, value relative to DMSO", "setting": "[3]; 20 uM", "result": 0.8378}, {"measurement": "CMV-LACZ in Myoblasts, value relative to DMSO", "setting": "[3]; 40 uM", "result": 0.7437}, {"measurement": "CMV-LACZ in Myotubes, value relative to DMSO", "setting": "[4]; 0.5 uM", "result": 1.0676}, {"measurement": "CMV-LACZ in Myotubes, value relative to DMSO", "setting": "[4]; 1 uM", "result": 0.9200}, {"measurement": "CMV-LACZ in Myotubes, value relative to DMSO", "setting": "[4]; 5 uM", "result": 0.8910}, {"measurement": "CMV-LACZ in Myotubes, value relative to DMSO", "setting": "[4]; 10 uM", "result": 1.0340}, {"measurement": "CMV-LACZ in Myotubes, value relative to DMSO", "setting": "[4]; 20 uM", "result": 0.7000}, {"measurement": "CMV-LACZ in Myotubes, value relative to DMSO", "setting": "[4]; 40 uM", "result": 0.7863}]}
{"molecule": "CCN(C(=O)c1ccc(S(=O)(=O)N(C)C)cc1)C(C)C(=O)Nc1ccc(C)cc1", "note": "(stereo not drawn) [MLS001170856-01]", "values": [{"measurement": "Burkin Assay in Myoblasts, signal relative to DMSO", "setting": "[1]; 0.5 uM", "result": 0.95}, {"measurement": "Burkin Assay in Myoblasts, signal relative to DMSO", "setting": "[1]; 1 uM", "result": 0.8651}, {"measurement": "Burkin Assay in Myoblasts, signal relative to DMSO", "setting": "[1]; 5 uM", "result": 0.9744}, {"measurement": "Burkin Assay in Myoblasts, signal relative to DMSO", "setting": "[1]; 10 uM", "result": 1.244}, {"measurement": "Burkin Assay in Myoblasts, signal relative to DMSO", "setting": "[1]; 20 uM", "result": 0.9217}, {"measurement": "Burkin Assay in Myoblasts, signal relative to DMSO", "setting": "[1]; 40 uM", "result": 0.7133}, {"measurement": "Burkin Assay in Myotubes, α7 integrin LacZ reporter signal relative to DMSO", "setting": "[2]; 0.5 uM", "result": 0.8296}, {"measurement": "Burkin Assay in Myotubes, α7 integrin LacZ reporter signal relative to DMSO", "setting": "[2]; 1 uM", "result": 0.7436}, {"measurement": "Burkin Assay in Myotubes, α7 integrin LacZ reporter signal relative to DMSO", "setting": "[2]; 5 uM", "result": 0.91}, {"measurement": "Burkin Assay in Myotubes, α7 integrin LacZ reporter signal relative to DMSO", "setting": "[2]; 10 uM", "result": 1.064}, {"measurement": "Burkin Assay in Myotubes, α7 integrin LacZ reporter signal relative to DMSO", "setting": "[2]; 20 uM", "result": 0.7763}, {"measurement": "Burkin Assay in Myotubes, α7 integrin LacZ reporter signal relative to DMSO", "setting": "[2]; 40 uM", "result": 1.029}, {"measurement": "CMV-LACZ in Myoblasts (β-galactosidase activity relative to DMSO)", "setting": "[3]; 0.5 uM", "result": 0.7337}, {"measurement": "CMV-LACZ in Myoblasts (β-galactosidase activity relative to DMSO)", "setting": "[3]; 1 uM", "result": 0.9857}, {"measurement": "CMV-LACZ in Myoblasts (β-galactosidase activity relative to DMSO)", "setting": "[3]; 5 uM", "result": 0.7938}, {"measurement": "CMV-LACZ in Myoblasts (β-galactosidase activity relative to DMSO)", "setting": "[3]; 10 uM", "result": 1.0004}, {"measurement": "CMV-LACZ in Myoblasts (β-galactosidase activity relative to DMSO)", "setting": "[3]; 20 uM", "result": 0.8881}, {"measurement": "CMV-LACZ in Myoblasts (β-galactosidase activity relative to DMSO)", "setting": "[3]; 40 uM", "result": 0.8389}, {"measurement": "CMV-LACZ in Myotubes, signal relative to DMSO", "setting": "[4]; 0.5 uM", "result": 1.1095}, {"measurement": "CMV-LACZ in Myotubes, signal relative to DMSO", "setting": "[4]; 1 uM", "result": 0.9105}, {"measurement": "CMV-LACZ in Myotubes, signal relative to DMSO", "setting": "[4]; 5 uM", "result": 1.0074}, {"measurement": "CMV-LACZ in Myotubes, signal relative to DMSO", "setting": "[4]; 10 uM", "result": 1.0562}, {"measurement": "CMV-LACZ in Myotubes, signal relative to DMSO", "setting": "[4]; 20 uM", "result": 1.1518}, {"measurement": "CMV-LACZ in Myotubes, signal relative to DMSO", "setting": "[4]; 40 uM", "result": 0.8753}]}
